Experimental data: publication doi:10.1101/2023.10.11.561987v1, “Resolving the pharmacological redox-sensitivity of SARS-CoV-2 PLpro in drug repurposing screening enabled identification of the competitive GRL-0617 binding site inhibitor CPI-169” (biorxiv, 2023)

Target: T1, SARS-CoV-2 PLpro-NAB (Severe acute respiratory syndrome coronavirus 2, UniProt P0DTD1)
T1 construct: gene rep; nsp3 fragment with PLpro and NAB domains, cut from replicase polyprotein 1a/1ab; His tag removed by TEV; E. coli BL21(DE3), pET24b
Assay: biochemical
Format: biochemical

Row | SMILES | IC50 [µM]
1 | NC(Cc1cc(O)c(O)cc1O)C(=O)O (racemic) [6-Hydroxy-DL-DOPA] | > 20
2 | Cc1nc2c(=O)n(C)c(=O)nc-2n(C)n1 [3-Methyl Toxoflavin] | 0.074
